Measurements from ChEMBL document CHEMBL3046265, “Synthesis, evaluation of antimicrobial activity, and molecular modeling of novel 2-((4-(2H-benzo[d] [1,2,3] triazol-2-yl)piperidin-1-yl)methyl)-5-substituted phenyl-1,3,4-oxadiazoles” (2013).
Active and inactive are the calls of the source. The rule behind the calls is not given here.

What was measured:
Assay type in all cases: functional
[1] = tested on: Staphylococcus aureus; assay: Antibacterial activity against Staphylococcus aureus at 600 ug/ml after overnight incubation; details: for zone of inhibition at 600 µg/mL: read-out: IZ
[2] = tested on: Klebsiella aerogenes; assay: Antibacterial activity against Enterobacter aerogenes at 600 ug/ml after overnight incubation; details: read-out: IZ
[3] = tested on: Escherichia coli; assay: Antibacterial activity against Escherichia coli at 900 ug/ml after overnight incubation; details: read-out: IZ
[4] = tested on: Fusarium oxysporum; assay: Antifungal activity against Fusarium oxysporum at 600 ug/ml after 48 hr; details: read-out: IZ
[5] = tested on: Bacillus pumilus; assay: Antibacterial activity against Bacillus pumilus at 600 ug/ml after overnight incubation; details: read-out: IZ
[6] = tested on: Exserohilum rostratum; assay: Antifungal activity against Setosphaeria rostrata at 600 ug/ml after 48 hr; details: read-out: IZ
[7] = tested on: Colletotrichum falcatum; assay: Antifungal activity against Glomerella tucumanensis at 900 ug/ml after 48 hr; details: read-out: IZ
[8] = tested on: Bacillus subtilis; assay: Antibacterial activity against Bacillus subtilis at 900 ug/ml after overnight incubation; details: read-out: IZ
[9] = tested on: Exserohilum rostratum; assay: Antifungal activity against Setosphaeria rostrata at 300 ug/ml after 48 hr; details: read-out: IZ
[10] = tested on: Colletotrichum falcatum; assay: Antifungal activity against Glomerella tucumanensis at 1200 ug/ml after 48 hr; details: read-out: IZ
[11] = tested on: Exserohilum rostratum; assay: Antifungal activity against Setosphaeria rostrata at 1200 ug/ml after 48 hr; details: read-out: IZ
[12] = tested on: Candida albicans; assay: Antifungal activity against Candida albicans at 300 ug/ml after 48 hr; details: read-out: IZ
[13] = tested on: Proteus vulgaris; assay: Antibacterial activity against Proteus vulgaris at 600 ug/ml after overnight incubation; details: read-out: IZ
[14] = tested on: Staphylococcus aureus; assay: Antibacterial activity against Staphylococcus aureus at 900 ug/ml after overnight incubation; details: for zone of inhibition at 900 µg/mL: read-out: IZ
[15] = tested on: Priestia megaterium; assay: Antibacterial activity against Bacillus megaterium at 900 ug/ml after overnight incubation; details: for zone of inhibition at 900 µg/mL: read-out: IZ
[16] = tested on: Proteus vulgaris; assay: Antibacterial activity against Proteus vulgaris at 900 ug/ml after overnight incubation; details: read-out: IZ
[17] = tested on: Candida albicans; assay: Antifungal activity against Candida albicans at 900 ug/ml after 48 hr; details: read-out: IZ
[18] = tested on: Enterococcus faecalis; assay: Antibacterial activity against Enterococcus faecalis at 600 ug/ml after overnight incubation; details: read-out: IZ
[19] = tested on: Klebsiella pneumoniae; assay: Antibacterial activity against Klebsiella pneumoniae at 600 ug/ml after overnight incubation; details: read-out: IZ
[20] = tested on: Enterococcus faecalis; assay: Antibacterial activity against Enterococcus faecalis at 900 ug/ml after overnight incubation; details: read-out: IZ
[21] = tested on: Bacillus pumilus; assay: Antibacterial activity against Bacillus pumilus at 900 ug/ml after overnight incubation; details: read-out: IZ
[22] = tested on: Bacillus subtilis; assay: Antibacterial activity against Bacillus subtilis at 600 ug/ml after overnight incubation; details: read-out: IZ
[23] = tested on: Klebsiella pneumoniae; assay: Antibacterial activity against Klebsiella pneumoniae at 900 ug/ml after overnight incubation; details: read-out: IZ
[24] = tested on: Klebsiella aerogenes; assay: Antibacterial activity against Enterobacter aerogenes at 900 ug/ml after overnight incubation; details: read-out: IZ
[25] = tested on: Streptococcus pyogenes; assay: Antibacterial activity against Streptococcus pyogenes at 900 ug/ml after overnight incubation; details: read-out: IZ
[26] = tested on: Fusarium oxysporum; assay: Antifungal activity against Fusarium oxysporum at 1200 ug/ml after 48 hr; details: read-out: IZ
[27] = tested on: Exserohilum rostratum; assay: Antifungal activity against Setosphaeria rostrata at 900 ug/ml after 48 hr; details: read-out: IZ
[28] = tested on: Candida albicans; assay: Antifungal activity against Candida albicans at 600 ug/ml after 48 hr; details: read-out: IZ
[29] = tested on: Streptococcus pyogenes; assay: Antibacterial activity against Streptococcus pyogenes at 600 ug/ml after overnight incubation; details: read-out: IZ
[30] = tested on: Colletotrichum falcatum; assay: Antifungal activity against Glomerella tucumanensis at 300 ug/ml after 48 hr; details: read-out: IZ
[31] = tested on: Escherichia coli; assay: Antibacterial activity against Escherichia coli at 600 ug/ml after overnight incubation; details: read-out: IZ
[32] = tested on: Candida albicans; assay: Antifungal activity against Candida albicans at 1200 ug/ml after 48 hr; details: read-out: IZ
[33] = tested on: Fusarium oxysporum; assay: Antifungal activity against Fusarium oxysporum at 900 ug/ml after 48 hr; details: read-out: IZ
[34] = tested on: Fusarium oxysporum; assay: Antifungal activity against Fusarium oxysporum at 300 ug/ml after 48 hr; details: read-out: IZ
[35] = tested on: Priestia megaterium; assay: Antibacterial activity against Bacillus megaterium at 600 ug/ml after overnight incubation; details: for zone of inhibition at 600 µg/mL: read-out: IZ
[36] = tested on: Colletotrichum falcatum; assay: Antifungal activity against Glomerella tucumanensis at 600 ug/ml after 48 hr; details: read-out: IZ

SMILES	zone of inhibition at 600 µg/mL [2] [mm]	zone of inhibition at 900 µg/mL [3] [mm]	zone of inhibition at 600 µg/mL [4] [mm]	zone of inhibition at 600 µg/mL [5] [mm]	zone of inhibition at 600 µg/mL [6] [mm]	zone of inhibition at 900 µg/mL [7] [mm]	zone of inhibition at 900 µg/mL [8] [mm]	zone of inhibition at 300 µg/mL [9] [mm]	zone of inhibition at 1200 µg/mL [10] [mm]	zone of inhibition at 1200 µg/mL [11] [mm]	zone of inhibition at 300 µg/mL [12] [mm]	zone of inhibition at 600 µg/mL [13] [mm]	zone of inhibition at 900 µg/mL [16] [mm]	zone of inhibition at 900 µg/mL [17] [mm]	zone of inhibition at 600 µg/mL [18] [mm]	zone of inhibition at 600 µg/mL [19] [mm]	zone of inhibition at 900 µg/mL [20] [mm]	zone of inhibition at 900 µg/mL [21] [mm]	zone of inhibition at 600 µg/mL [22] [mm]	zone of inhibition at 900 µg/mL [23] [mm]	also measured
Cc1ccc(-c2nnc(CN3CCC(n4nc5ccccc5n4)CC3)o2)cc1Br	3.55	11.1	7.36	3.32	5.21	14	9.05	3.25	25.6	17.2	3.23	4.85	10.1	9.26	3.35	6.02	5.56	6.56	4.25	12.8	zone of inhibition at 600 µg/mL [1]: 5.85 mm; zone of inhibition at 900 µg/mL [14]: 11.2 mm; zone of inhibition at 900 µg/mL [15]: 9.85 mm; zone of inhibition at 900 µg/mL [24]: 7.05 mm; zone of inhibition at 900 µg/mL [25]: 5.56 mm; zone of inhibition at 1200 µg/mL [26]: 26.9 mm; zone of inhibition at 900 µg/mL [27]: 9.86 mm; zone of inhibition at 600 µg/mL [28]: 5.51 mm; zone of inhibition at 600 µg/mL [29]: 2.25 mm; zone of inhibition at 300 µg/mL [30]: 4.22 mm; zone of inhibition at 600 µg/mL [31]: 6.85 mm; zone of inhibition at 1200 µg/mL [32]: 17.8 mm; zone of inhibition at 900 µg/mL [33]: 13.2 mm; zone of inhibition at 300 µg/mL [34]: 4.21 mm; zone of inhibition at 600 µg/mL [35]: 5.85 mm; zone of inhibition at 600 µg/mL [36]: 7.8 mm
c1ccc(-c2nnc(CN3CCC(n4nc5ccccc5n4)CC3)o2)cc1	5.82	4.85	4.85	4.25	6.25	13.2	5.45	3.15	27.9	24	3.12	3.8	7.5	13.2	4.25	3.35	9.25	8.65	2.65	6.56	zone of inhibition at 600 µg/mL [1]: 3.26 mm; zone of inhibition at 900 µg/mL [14]: 8.25 mm; zone of inhibition at 900 µg/mL [15]: 11.4 mm; zone of inhibition at 900 µg/mL [24]: 11.2 mm; zone of inhibition at 900 µg/mL [25]: 8.25 mm; zone of inhibition at 1200 µg/mL [26]: 21.3 mm; zone of inhibition at 900 µg/mL [27]: 11.8 mm; zone of inhibition at 600 µg/mL [28]: 6.05 mm; zone of inhibition at 600 µg/mL [29]: 4.01 mm; zone of inhibition at 300 µg/mL [30]: 3.56 mm; zone of inhibition at 600 µg/mL [31]: 2.24 mm; zone of inhibition at 1200 µg/mL [32]: 24.2 mm; zone of inhibition at 900 µg/mL [33]: 10.2 mm; zone of inhibition at 300 µg/mL [34]: 2.25 mm; zone of inhibition at 600 µg/mL [35]: 5.82 mm; zone of inhibition at 600 µg/mL [36]: 7.26 mm
Cc1c(Br)cccc1-c1nnc(CN2CCC(n3nc4ccccc4n3)CC2)o1	3.65	9.46	6.56	4.29	5.25	15.4	9.8	2.98	29.3	23.9	2.09	3.45	7.05	9.36	5.92	5.25	12.1	8.54	4.8	10.2	zone of inhibition at 600 µg/mL [1]: 4.8 mm; zone of inhibition at 900 µg/mL [14]: 10 mm; zone of inhibition at 900 µg/mL [15]: 10.3 mm; zone of inhibition at 900 µg/mL [24]: 7.56 mm; zone of inhibition at 900 µg/mL [25]: 9.25 mm; zone of inhibition at 1200 µg/mL [26]: 24.9 mm; zone of inhibition at 900 µg/mL [27]: 11.3 mm; zone of inhibition at 600 µg/mL [28]: 4.18 mm; zone of inhibition at 600 µg/mL [29]: 4.82 mm; zone of inhibition at 300 µg/mL [30]: 3.97 mm; zone of inhibition at 600 µg/mL [31]: 5.23 mm; zone of inhibition at 1200 µg/mL [32]: 17.9 mm; zone of inhibition at 900 µg/mL [33]: 13.3 mm; zone of inhibition at 300 µg/mL [34]: 3.42 mm; zone of inhibition at 600 µg/mL [35]: 5.3 mm; zone of inhibition at 600 µg/mL [36]: 8.25 mm
COc1cccc(-c2nnc(CN3CCC(n4nc5ccccc5n4)CC3)o2)c1	3.65	6.26	5.86	5.56	5.85	13.9	9.56	3.32	25.9	19.2	2.52	4.36	8.45	9.86	4.25	3.25	9.26	11.2	4.25	7.25	inhibition zone (IZ) [1]: inactive; inhibition zone (IZ) [14]: inactive; inhibition zone (IZ) [15]: inactive; zone of inhibition at 900 µg/mL [24]: 7.56 mm; zone of inhibition at 900 µg/mL [25]: 11.3 mm; zone of inhibition at 1200 µg/mL [26]: 21.3 mm; zone of inhibition at 900 µg/mL [27]: 10.2 mm; zone of inhibition at 600 µg/mL [28]: 5.01 mm; zone of inhibition at 600 µg/mL [29]: 4.47 mm; zone of inhibition at 300 µg/mL [30]: 4.56 mm; zone of inhibition at 600 µg/mL [31]: 3.35 mm; zone of inhibition at 1200 µg/mL [32]: 17.2 mm; zone of inhibition at 900 µg/mL [33]: 10.1 mm; zone of inhibition at 300 µg/mL [34]: 3.35 mm; inhibition zone (IZ) [35]: inactive; zone of inhibition at 600 µg/mL [36]: 7.76 mm
